Key:
[1] = biological target: Serine/threonine-protein kinase DCLK2 (Homo sapiens) (UniProt Q8N568); details: Compound concentration 1000.0 nM
[2] = biological target: Protein-tyrosine kinase 2-beta (Homo sapiens) (UniProt Q14289); details: Compound concentration 1000.0 nM
[3] = biological target: 5-hydroxytryptamine receptor 2A (Homo sapiens, UniProt P28223); details: Compound concentration 10.0 uM
[4] = biological target: Cyclin-dependent kinase 4 (Homo sapiens) (UniProt P11802); details: Compound concentration 1000.0 nM
[5] = biological target: Serine/threonine-protein kinase tousled-like 2 (Homo sapiens) (UniProt Q86UE8); details: Compound concentration 1000.0 nM
[6] = biological target: Tyrosine-protein kinase Lyn (Homo sapiens) (UniProt P07948); details: Compound concentration 1000.0 nM
[7] = test system: Epidermal growth factor receptor (Homo sapiens), P00533 [L858R]; details: Compound concentration 1000.0 nM
[8] = biological target: Serine/threonine-protein kinase Nek9 (Homo sapiens) (UniProt Q8TD19); details: Compound concentration 1000.0 nM
[9] = biological target: Receptor-type tyrosine-protein kinase FLT3 (Homo sapiens) (UniProt P36888); details: Compound concentration 1000.0 nM
[10] = test system: Proto-oncogene tyrosine-protein kinase receptor Ret (Homo sapiens), P07949 [M918T]; details: Compound concentration 1000.0 nM
[11] = biological target: Tyrosine-protein kinase Mer (Homo sapiens) (UniProt Q12866); details: Compound concentration 1000.0 nM
[12] = biological target: Ribosomal protein S6 kinase alpha-2 (Homo sapiens) (UniProt Q15349); details: Compound concentration 1000.0 nM
[13] = test system: Receptor-type tyrosine-protein kinase FLT3 (Homo sapiens), P36888 [UNDEFINED MUTATION]; details: Compound concentration 1000.0 nM
[14] = biological target: Tyrosine-protein kinase FRK (Homo sapiens) (UniProt P42685); details: Compound concentration 1000.0 nM
[15] = biological target: Epithelial discoidin domain-containing receptor 1 (Homo sapiens) (UniProt Q08345); details: Compound concentration 1000.0 nM
[16] = biological target: Mitogen-activated protein kinase 1 (Homo sapiens) (UniProt P28482); details: Compound concentration 1000.0 nM
[17] = biological target: Tyrosine-protein kinase Tec (Homo sapiens) (UniProt P42680); details: Compound concentration 1000.0 nM
[18] = biological target: Casein kinase I isoform alpha (Homo sapiens) (UniProt P48729); details: Compound concentration 1000.0 nM
[19] = biological target: Serine/threonine-protein kinase PAK 6 (Homo sapiens) (UniProt Q9NQU5); details: Compound concentration 1000.0 nM
[20] = biological target: D(4) dopamine receptor (Homo sapiens) (UniProt P21917); details: Compound concentration 10.0 uM
[21] = biological target: Ribosomal protein S6 kinase alpha-3 (Homo sapiens) (UniProt P51812); details: Compound concentration 1000.0 nM
[22] = test system: ALK tyrosine kinase receptor (Homo sapiens), Q9UM73 [L1196M]; details: Compound concentration 1000.0 nM
[23] = biological target: D(2) dopamine receptor (Homo sapiens) (UniProt P14416); details: Compound concentration 10.0 uM
[24] = biological target: Proto-oncogene tyrosine-protein kinase receptor Ret (Homo sapiens) (UniProt P07949); details: Compound concentration 1000.0 nM
[25] = test system: Mast/stem cell growth factor receptor Kit (Homo sapiens), P10721 [A829P]; details: Compound concentration 1000.0 nM
[26] = biological target: Non-receptor tyrosine-protein kinase TYK2 (Homo sapiens) (UniProt P29597); details: Compound concentration 1000.0 nM
[27] = biological target: Serine/threonine-protein kinase 38-like (Homo sapiens) (UniProt Q9Y2H1); details: Compound concentration 1000.0 nM
[28] = biological target: RAC-gamma serine/threonine-protein kinase (Homo sapiens) (UniProt Q9Y243); details: Compound concentration 1000.0 nM
[29] = biological target: Serine/threonine-protein kinase Chk1 (Homo sapiens) (UniProt O14757); details: Compound concentration 1000.0 nM
[30] = test system: Phosphatidylinositol 4,5-bisphosphate 3-kinase catalytic subunit alpha isoform (Homo sapiens), P42336 [E542K]; details: Compound concentration 1000.0 nM
[31] = biological target: Mitogen-activated protein kinase kinase kinase 20 (Homo sapiens) (UniProt Q9NYL2); details: Compound concentration 1000.0 nM
[32] = biological target: Mitogen-activated protein kinase kinase kinase 6 (Homo sapiens) (UniProt O95382); details: Compound concentration 1000.0 nM
[33] = biological target: Ephrin type-B receptor 6 (Homo sapiens) (UniProt O15197); details: Compound concentration 1000.0 nM
[34] = biological target: Interferon-induced, double-stranded RNA-activated protein kinase (Homo sapiens) (UniProt P19525); details: Compound concentration 1000.0 nM
[35] = biological target: Fibroblast growth factor receptor 2 (Homo sapiens) (UniProt P21802); details: Compound concentration 1000.0 nM
[36] = biological target: Phosphatidylinositol 3-kinase C2 domain-containing subunit gamma (Homo sapiens) (UniProt O75747); details: Compound concentration 1000.0 nM
[37] = biological target: Serine/threonine-protein kinase MRCK gamma (Homo sapiens) (UniProt Q6DT37); details: Compound concentration 1000.0 nM
[38] = biological target: Mitogen-activated protein kinase kinase kinase kinase 3 (Homo sapiens) (UniProt Q8IVH8); details: Compound concentration 1000.0 nM
[39] = biological target: Serine/threonine-protein kinase WNK1 (Homo sapiens) (UniProt Q9H4A3); details: Compound concentration 1000.0 nM
[40] = biological target: Serine/threonine-protein kinase PAK 3 (Homo sapiens) (UniProt O75914); details: Compound concentration 1000.0 nM
[41] = biological target: Tyrosine-protein kinase Srms (Homo sapiens) (UniProt Q9H3Y6); details: Compound concentration 1000.0 nM
[42] = biological target: MAP/microtubule affinity-regulating kinase 4 (Homo sapiens) (UniProt Q96L34); details: Compound concentration 1000.0 nM
[43] = biological target: Activin receptor type-2B (Homo sapiens) (UniProt Q13705); details: Compound concentration 1000.0 nM
[44] = test system: Epidermal growth factor receptor (Homo sapiens), P00533 [UNDEFINED MUTATION]; details: Compound concentration 1000.0 nM
[45] = biological target: Calcium/calmodulin-dependent protein kinase type 1B (Homo sapiens) (UniProt Q6P2M8); details: Compound concentration 1000.0 nM

Activin receptor type-2B (Homo sapiens), sequence (Q13705 whole entry): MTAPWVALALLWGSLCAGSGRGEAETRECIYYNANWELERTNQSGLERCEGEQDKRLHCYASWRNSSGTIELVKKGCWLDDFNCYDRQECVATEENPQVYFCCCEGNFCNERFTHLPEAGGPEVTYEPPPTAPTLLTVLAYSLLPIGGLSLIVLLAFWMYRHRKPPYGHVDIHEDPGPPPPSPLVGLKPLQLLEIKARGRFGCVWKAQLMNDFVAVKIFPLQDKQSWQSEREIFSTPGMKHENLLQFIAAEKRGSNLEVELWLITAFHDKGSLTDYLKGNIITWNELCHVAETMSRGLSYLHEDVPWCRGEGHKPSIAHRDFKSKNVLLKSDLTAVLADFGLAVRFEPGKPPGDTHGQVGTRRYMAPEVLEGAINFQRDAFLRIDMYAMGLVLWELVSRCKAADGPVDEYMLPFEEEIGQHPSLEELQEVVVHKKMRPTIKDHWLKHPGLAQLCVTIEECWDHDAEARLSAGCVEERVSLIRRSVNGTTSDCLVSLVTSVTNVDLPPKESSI
Tyrosine-protein kinase Lyn (Homo sapiens), sequence (P07948 2-512 limits assumed): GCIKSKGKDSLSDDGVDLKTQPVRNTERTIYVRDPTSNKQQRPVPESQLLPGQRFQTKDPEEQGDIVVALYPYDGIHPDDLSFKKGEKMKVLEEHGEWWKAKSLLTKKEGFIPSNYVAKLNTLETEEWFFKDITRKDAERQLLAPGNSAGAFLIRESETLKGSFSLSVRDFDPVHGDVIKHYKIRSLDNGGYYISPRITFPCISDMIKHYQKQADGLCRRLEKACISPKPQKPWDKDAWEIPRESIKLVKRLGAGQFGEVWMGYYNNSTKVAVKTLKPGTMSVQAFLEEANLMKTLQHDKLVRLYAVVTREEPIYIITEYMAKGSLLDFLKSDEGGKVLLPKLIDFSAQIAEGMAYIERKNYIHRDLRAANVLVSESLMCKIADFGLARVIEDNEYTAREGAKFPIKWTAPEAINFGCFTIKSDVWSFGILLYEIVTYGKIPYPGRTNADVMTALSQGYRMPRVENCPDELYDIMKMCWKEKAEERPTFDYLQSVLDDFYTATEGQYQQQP
D(4) dopamine receptor (Homo sapiens), sequence (P21917 whole entry): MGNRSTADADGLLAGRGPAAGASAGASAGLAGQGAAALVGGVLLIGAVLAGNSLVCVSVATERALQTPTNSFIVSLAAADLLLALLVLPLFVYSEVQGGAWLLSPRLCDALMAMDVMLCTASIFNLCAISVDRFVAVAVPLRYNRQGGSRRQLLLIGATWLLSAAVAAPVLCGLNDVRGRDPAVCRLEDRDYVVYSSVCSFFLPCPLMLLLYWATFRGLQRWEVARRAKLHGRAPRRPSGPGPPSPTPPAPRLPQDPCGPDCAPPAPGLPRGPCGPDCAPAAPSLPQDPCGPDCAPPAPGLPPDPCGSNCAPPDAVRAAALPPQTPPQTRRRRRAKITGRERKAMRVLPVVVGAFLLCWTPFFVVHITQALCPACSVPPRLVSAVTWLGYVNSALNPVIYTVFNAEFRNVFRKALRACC
Serine/threonine-protein kinase MRCK gamma (Homo sapiens), sequence (Q6DT37 whole entry): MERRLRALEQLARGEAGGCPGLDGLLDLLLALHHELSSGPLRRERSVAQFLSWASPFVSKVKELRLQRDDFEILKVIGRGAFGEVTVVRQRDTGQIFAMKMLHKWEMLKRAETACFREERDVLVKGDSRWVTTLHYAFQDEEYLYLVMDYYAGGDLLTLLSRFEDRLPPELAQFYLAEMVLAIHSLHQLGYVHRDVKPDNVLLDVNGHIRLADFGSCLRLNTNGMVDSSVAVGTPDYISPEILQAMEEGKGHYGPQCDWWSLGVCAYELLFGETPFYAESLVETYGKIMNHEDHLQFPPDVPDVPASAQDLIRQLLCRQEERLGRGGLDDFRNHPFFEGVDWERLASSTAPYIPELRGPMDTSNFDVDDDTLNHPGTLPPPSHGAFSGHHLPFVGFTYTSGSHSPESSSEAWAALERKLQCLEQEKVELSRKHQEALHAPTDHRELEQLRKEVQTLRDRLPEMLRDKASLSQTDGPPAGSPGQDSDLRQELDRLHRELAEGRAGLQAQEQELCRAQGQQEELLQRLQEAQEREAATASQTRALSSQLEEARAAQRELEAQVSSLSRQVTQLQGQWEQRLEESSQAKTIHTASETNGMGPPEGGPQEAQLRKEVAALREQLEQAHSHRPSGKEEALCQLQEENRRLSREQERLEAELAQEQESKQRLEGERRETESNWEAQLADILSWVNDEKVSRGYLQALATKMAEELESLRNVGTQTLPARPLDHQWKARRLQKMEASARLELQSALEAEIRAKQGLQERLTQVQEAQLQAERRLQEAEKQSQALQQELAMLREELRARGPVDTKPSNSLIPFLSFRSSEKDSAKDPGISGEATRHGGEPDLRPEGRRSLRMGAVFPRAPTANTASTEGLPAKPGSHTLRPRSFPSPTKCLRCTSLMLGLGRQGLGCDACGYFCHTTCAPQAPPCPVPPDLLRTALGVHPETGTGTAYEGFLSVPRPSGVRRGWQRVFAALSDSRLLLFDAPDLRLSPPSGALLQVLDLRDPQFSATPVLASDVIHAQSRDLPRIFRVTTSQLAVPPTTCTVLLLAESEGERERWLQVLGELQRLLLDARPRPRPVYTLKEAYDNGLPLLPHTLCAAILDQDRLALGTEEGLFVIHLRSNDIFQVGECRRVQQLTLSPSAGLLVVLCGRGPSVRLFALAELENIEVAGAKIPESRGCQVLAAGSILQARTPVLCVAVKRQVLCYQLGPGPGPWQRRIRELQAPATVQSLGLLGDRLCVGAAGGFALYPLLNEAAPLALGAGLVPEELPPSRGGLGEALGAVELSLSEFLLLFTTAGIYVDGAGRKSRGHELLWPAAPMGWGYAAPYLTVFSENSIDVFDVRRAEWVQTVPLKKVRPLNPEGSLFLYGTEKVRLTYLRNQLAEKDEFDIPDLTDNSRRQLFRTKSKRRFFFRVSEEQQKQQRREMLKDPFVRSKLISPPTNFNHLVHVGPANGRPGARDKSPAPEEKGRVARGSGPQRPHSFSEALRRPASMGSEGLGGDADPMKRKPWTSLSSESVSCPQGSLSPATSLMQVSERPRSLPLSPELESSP
RAC-gamma serine/threonine-protein kinase (Homo sapiens), sequence (Q9Y243 whole entry): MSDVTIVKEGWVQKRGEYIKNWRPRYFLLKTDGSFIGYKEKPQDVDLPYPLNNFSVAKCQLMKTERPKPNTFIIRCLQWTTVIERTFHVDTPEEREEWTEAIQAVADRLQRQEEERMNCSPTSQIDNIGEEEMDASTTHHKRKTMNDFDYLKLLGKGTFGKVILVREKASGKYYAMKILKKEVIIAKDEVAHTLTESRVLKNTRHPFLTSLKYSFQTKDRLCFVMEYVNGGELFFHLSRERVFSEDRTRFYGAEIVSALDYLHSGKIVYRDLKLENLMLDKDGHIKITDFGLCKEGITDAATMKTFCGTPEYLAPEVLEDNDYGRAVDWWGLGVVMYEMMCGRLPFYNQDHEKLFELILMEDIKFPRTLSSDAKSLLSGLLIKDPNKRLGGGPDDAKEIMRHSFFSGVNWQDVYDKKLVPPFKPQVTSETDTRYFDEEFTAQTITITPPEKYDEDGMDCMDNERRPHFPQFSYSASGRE
Phosphatidylinositol 3-kinase C2 domain-containing subunit gamma (Homo sapiens), sequence (O75747 whole entry, the tested form may be a part): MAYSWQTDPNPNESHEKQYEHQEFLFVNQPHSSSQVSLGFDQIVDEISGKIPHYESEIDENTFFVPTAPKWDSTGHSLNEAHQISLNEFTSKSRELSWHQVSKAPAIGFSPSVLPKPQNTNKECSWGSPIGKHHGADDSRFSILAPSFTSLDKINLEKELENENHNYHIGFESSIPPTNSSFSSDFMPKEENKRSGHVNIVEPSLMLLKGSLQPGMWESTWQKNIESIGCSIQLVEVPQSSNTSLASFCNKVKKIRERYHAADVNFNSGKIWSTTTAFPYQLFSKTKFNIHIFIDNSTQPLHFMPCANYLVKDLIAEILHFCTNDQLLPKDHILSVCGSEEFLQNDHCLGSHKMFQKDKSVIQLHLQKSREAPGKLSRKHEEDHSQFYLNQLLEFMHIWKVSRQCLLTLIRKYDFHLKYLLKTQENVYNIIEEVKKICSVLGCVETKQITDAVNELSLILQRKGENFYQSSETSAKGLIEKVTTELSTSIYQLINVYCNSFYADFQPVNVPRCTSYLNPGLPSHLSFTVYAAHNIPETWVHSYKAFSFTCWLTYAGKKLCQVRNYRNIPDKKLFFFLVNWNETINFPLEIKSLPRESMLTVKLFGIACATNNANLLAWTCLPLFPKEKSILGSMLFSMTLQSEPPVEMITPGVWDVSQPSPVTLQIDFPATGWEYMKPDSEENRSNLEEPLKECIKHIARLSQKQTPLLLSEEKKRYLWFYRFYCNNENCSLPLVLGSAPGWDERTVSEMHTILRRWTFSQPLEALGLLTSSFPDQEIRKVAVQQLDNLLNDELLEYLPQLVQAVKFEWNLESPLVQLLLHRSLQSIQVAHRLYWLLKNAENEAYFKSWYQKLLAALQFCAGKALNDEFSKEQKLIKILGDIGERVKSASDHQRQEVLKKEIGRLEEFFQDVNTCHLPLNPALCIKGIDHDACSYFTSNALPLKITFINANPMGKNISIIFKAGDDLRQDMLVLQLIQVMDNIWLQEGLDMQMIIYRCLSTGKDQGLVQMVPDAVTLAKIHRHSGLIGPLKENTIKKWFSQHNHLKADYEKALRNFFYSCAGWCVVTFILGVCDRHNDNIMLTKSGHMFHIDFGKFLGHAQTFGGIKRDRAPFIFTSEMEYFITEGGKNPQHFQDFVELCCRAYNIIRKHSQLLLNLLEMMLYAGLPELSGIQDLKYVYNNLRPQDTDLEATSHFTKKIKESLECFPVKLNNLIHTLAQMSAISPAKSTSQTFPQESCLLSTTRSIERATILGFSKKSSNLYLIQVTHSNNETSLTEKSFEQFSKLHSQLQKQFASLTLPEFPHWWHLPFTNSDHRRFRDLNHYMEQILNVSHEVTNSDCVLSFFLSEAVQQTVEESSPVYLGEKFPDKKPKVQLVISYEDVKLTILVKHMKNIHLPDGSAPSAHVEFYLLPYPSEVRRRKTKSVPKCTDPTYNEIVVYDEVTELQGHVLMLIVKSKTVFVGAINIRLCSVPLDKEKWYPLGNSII

Question: For `O=C(Nc1cccnn1)N1CC(C/C=C/c2cncc(Oc3ccc(C(F)(F)F)cn3)n2)C1`, which residual activity [1] is on record?
Answer: 100%

Question: And the residual activity [2]?
Answer: 100%

Question: And the inhibition [3]?
Answer: -3.55%

Question: And the residual activity [4]?
Answer: 94%

Question: What about the residual activity [5] of the same compound?
Answer: 100%

Question: What about the residual activity [6] of the same compound?
Answer: 97%

Question: What about the residual activity [7] of the same compound?
Answer: 97%

Question: And the residual activity [8]?
Answer: 100%

Question: What about the residual activity [9] of the same compound?
Answer: 100%

Question: And the residual activity [10]?
Answer: 96%

Question: And the residual activity [11]?
Answer: 100%

Question: And the residual activity [12]?
Answer: 100%

Question: What about the residual activity [13] of the same compound?
Answer: 100%

Question: What about the residual activity [14] of the same compound?
Answer: 82%

Question: And the residual activity [15]?
Answer: 99%

Question: What about the residual activity [16] of the same compound?
Answer: 100%

Question: What about the residual activity [17] of the same compound?
Answer: 100%

Question: And the residual activity [18]?
Answer: 88%

Question: And the residual activity [19]?
Answer: 100%

Question: And the inhibition [20]?
Answer: 12.3%

Question: And the residual activity [21]?
Answer: 89%

Question: And the residual activity [22]?
Answer: 82%

Question: And the inhibition [23]?
Answer: 13.7%

Question: And the residual activity [24]?
Answer: 100%

Question: What about the residual activity [25] of the same compound?
Answer: 59%

Question: What about the residual activity [26] of the same compound?
Answer: 79%

Question: And the residual activity [27]?
Answer: 100%

Question: And the residual activity [28]?
Answer: 100%

Question: And the residual activity [29]?
Answer: 100%

Question: What about the residual activity [30] of the same compound?
Answer: 88%

Question: And the residual activity [31]?
Answer: 100%

Question: And the residual activity [32]?
Answer: 60%

Question: What about the residual activity [33] of the same compound?
Answer: 87%

Question: And the residual activity [34]?
Answer: 100%

Question: What about the residual activity [35] of the same compound?
Answer: 100%

Question: And the residual activity [36]?
Answer: 100%

Question: What about the residual activity [37] of the same compound?
Answer: 100%

Question: What about the residual activity [38] of the same compound?
Answer: 100%

Question: And the residual activity [39]?
Answer: 100%

Question: And the residual activity [40]?
Answer: 100%

Question: What about the residual activity [41] of the same compound?
Answer: 67%

Question: What about the residual activity [42] of the same compound?
Answer: 100%

Question: What about the residual activity [43] of the same compound?
Answer: 98%

Question: What about the residual activity [44] of the same compound?
Answer: 85%

Question: And the residual activity [45]?
Answer: 63%

Question: `O=C(Nc1cccnn1)N1CCC(=Cc2cccc(Oc3ccc(C(F)(F)F)cn3)c2)CC1` was tested. Which residual activity [1] did it give?
Answer: 81%

Question: What about the residual activity [2] of the same compound?
Answer: 97%

Question: What about the inhibition [3] of the same compound?
Answer: 82.9%

Question: And the residual activity [4]?
Answer: 96%

Question: And the residual activity [5]?
Answer: 100%

Question: What about the residual activity [6] of the same compound?
Answer: 100%

Question: And the residual activity [7]?
Answer: 100%

Question: What about the residual activity [8] of the same compound?
Answer: 100%

Question: What about the residual activity [9] of the same compound?
Answer: 100%

Question: What about the residual activity [10] of the same compound?
Answer: 80%

Question: And the residual activity [11]?
Answer: 81%

Question: And the residual activity [12]?
Answer: 80%

Question: And the residual activity [13]?
Answer: 100%

Question: And the residual activity [14]?
Answer: 100%

Question: What about the residual activity [15] of the same compound?
Answer: 79%

Question: And the residual activity [16]?
Answer: 92%

Question: What about the residual activity [17] of the same compound?
Answer: 100%

Question: What about the residual activity [18] of the same compound?
Answer: 100%

Question: What about the residual activity [19] of the same compound?
Answer: 100%

Question: What about the inhibition [20] of the same compound?
Answer: -6.93%

Question: And the residual activity [21]?
Answer: 100%

Question: What about the residual activity [22] of the same compound?
Answer: 100%

Question: What about the inhibition [23] of the same compound?
Answer: 1.84%

Question: What about the residual activity [24] of the same compound?
Answer: 100%

Question: And the residual activity [25]?
Answer: 96%

Question: What about the residual activity [26] of the same compound?
Answer: 100%

Question: What about the residual activity [27] of the same compound?
Answer: 84%

Question: And the residual activity [28]?
Answer: 100%

Question: And the residual activity [29]?
Answer: 78%

Question: What about the residual activity [30] of the same compound?
Answer: 65%

Question: What about the residual activity [31] of the same compound?
Answer: 95%

Question: And the residual activity [32]?
Answer: 100%

Question: And the residual activity [33]?
Answer: 100%

Question: What about the residual activity [34] of the same compound?
Answer: 100%

Question: What about the residual activity [35] of the same compound?
Answer: 96%

Question: And the residual activity [36]?
Answer: 95%

Question: And the residual activity [37]?
Answer: 84%

Question: And the residual activity [38]?
Answer: 100%

Question: What about the residual activity [39] of the same compound?
Answer: 100%

Question: What about the residual activity [40] of the same compound?
Answer: 73%

Question: And the residual activity [41]?
Answer: 95%

Question: What about the residual activity [42] of the same compound?
Answer: 76%

Question: And the residual activity [43]?
Answer: 98%

Question: And the residual activity [44]?
Answer: 73%

Question: What about the residual activity [45] of the same compound?
Answer: 100%

From ChEMBL document CHEMBL4507297, “Data for DCP probe PF-04457845” (2021)
